Assay results from the NIST ThermoML archive (doi:10.1016/j.jct.2007.11.008).
Numbers after ± are expanded uncertainties.

Experiment: molar enthalpy of vaporization or sublimation
Conditions: 298 K; Crystal; Static calorimetry

molar enthalpy	Compound
48.57 ± 0.263 kcal/mol	CC(C)CN(CC(C)C)C(=S)NC(=O)c1cccs1
48.92 ± 0.263 kcal/mol	CCCCN(CCCC)C(=S)NC(=O)c1cccs1 [N-((dibutylamino)thioxomethyl)-2-thiophenecarboxamide]
